For data set [1], the system named is A549 human lung cancer cell line. The data set can be described thus: MTT cell viability / cytotoxicity on A549. The class given is cell-based. The note with it: for IC50: Homo sapiens, A549, A549 cell line, MTT, mean ± S.D. of three determinations; for SI (L929/A549): selectivity index = IC50 on normal cells/IC50 on cancer cells; for inhibition of A549 at the lowest concentration tested: A549, MTT. Here is the method:
(§1) In 75 cm^2 sterile plastic tissue culture flasks, the human lung adenocarcinoma A549 and the mouse fibroblast L929 cell lines were cultured in 90% RPMI (Sigma, Deisenhofen, Germany) media supplemented with 10% (v/v) FBS (Gibco, Paisley, UK) and adherent monolayers of penicillin/streptomycin (100 units/mL) from Gibco, Paisley, UK. These cells were cultured at 37 °C in an environment that was humidified and contained 5% CO2.
(§2) The MTT (3-(4,5-dimethylthiazol-2-yl)-2,5-diphenyltetrazolium bromide) method was applicated to assess the cell viability of L929, C6 and A549 cell lines against the tested compounds according to the reported data.[51] In 96-well plates with a flat bottom, the A549, C6, and L929 cells were cultivated at a density of 5 × 10^3 cells per well. […] After addition, they were incubated for a full day in culture wells. Following the incubation period, 20 μL of phosphate-buffered saline (PBS) (Gibco, Paisley, UK) containing 5 mg/mL MTT powder (Sigma-Aldrich, St. Louis, MO, USA) was added to each well. The medium was taken out of the plate and replaced with 100 μL of DMSO in each well to dissolve the dye. This was left for 2 to 4 h under the same conditions and then left for 10 min. At the conclusion of the procedure, purple formazan, the reduction product of the MTT agent, was formed by the mitochondrial dehydrogenase enzyme of intact cells. A microtiter plate reader (BioTek Plate Reader, Winooski, VT, USA) was used to measure the cells at 540 nm. Cell viability was measured as a percentage and contrasted with that of the cells in the control group. Half-maximal inhibitory concentration 50 (IC50) values were determined by repeating each concentration in three wells and identifying the drug concentrations that decreased the absorbance to 50% of control values. The medium control served as the basis for calculating the percentage of viable cells.

For the next data set, the system named is C6 rat glioma cell line. The data set is described as follows: MTT cell viability / cytotoxicity on C6. It is filed as cell-based. The following applies: mean ± S.D. of three determinations. Here is the method: as §2
The subject of data set [2] is L929 murine fibroblast cell line. The data set is described as follows: MTT cell viability / cytotoxicity on L929 (healthy cells). It is filed as cell-based, mouse. The following applies: mean ± S.D. of three determinations. Here is the method:
as §1, §2

The next data set has as its target T1, MMP-9 enzyme (Homo sapiens, UniProt P14780).
T1 construct: purchased EnzoLife Sciences Inc. (Farmingdale, New York, NY, USA)
The data set can be described thus: MMP-9 colorimetric inhibition assay. It is filed as biochemical. The note with it: for inhibition at 100 µg/mL: at 100 μg/mL. The source says: As described in our previous study,[36] the method was applied in exactly the same manner. EnzoLife Sciences Inc. provided MMP-9 colorimetric kits (Farmingdale, New York, NY, USA). The MMP Colorimetric Drug Discovery Kits are a comprehensive test technique that uses a thiopeptide (Ac-PLG-[2-mercapto-4-methyl-pentanoyl]-LG-OC2H5) as a chromogenic substrate to screen MMP inhibitors. Using a microplate reader (BioTek, PowerWave, Gen5 software, Winooski, VT, USA) at room temperature, the UV absorbance was measured at 412 nm. NNGH was employed as an inhibitor of control.

Data set [3] relates to A549 cells. The data set can be described thus: Early/late apoptosis by Annexin V-FITC/PI flow cytometry. The note with it: A549, IC50 dose, 24 h incubation. The class given is cell-based, human. Background: In flow cytometry, cells or beads pass a laser one at a time.
Description: Phosphatidylserine externalization, a marker of early apoptosis, was assessed using the FITC Annexin V apoptosis detection kit (BD Pharmingen, San Jose, CA, USA) on a BD FACSAria flow cytometer. Following their collection, the A549 and L929 cells were twice washed in ice-cold PBS before being resuspended in 100 μL of binding buffer. The cells were treated with a volume of 5 μL (5 μg/mL) of Annexin V-FITC and PI, and they were incubated for 15 min at room temperature (20–25 °C) in the dark. Following that, 400 μL of binding buffer was added to the combination samples, and FACSDiva version 6.1.1 was used to analyze the samples on a BD FACSAria flow cytometer.
Another data set deals with caspase-3. The data set can be described thus: Caspase-3 activation in A549 cells. It is filed as cell-based, human. The note with it: A549, IC50 of the compounds, 24 h. Here is the method: The Spectrofluorometric Caspase-3 Assay kit (BD Pharmingen, Franklin Lakes, NJ) was used to assess the activation of caspase-3. The purpose of the kit was to measure the early indicator of cells going through apoptosis, known as caspase-3 or the DEVD-cleaving activity. First, 1 × 10^6 cells/mL of cells were resuspended in cold cell lysis buffer, rinsed with PBS, and then allowed to sit on ice for 30 min. […] In each reaction, a well containing 0.2 mL of 1 x HEPES buffer was filled with […] of reconstituted AcDEVD-AMC, a synthetic tetrapeptide fluorogenic substrate for caspase-3 activity. Each reaction/well received 20 μL of cell lysate. The reaction mixtures were incubated at 37 °C for 1 h. Using a microplate reader (Perkin-Elmer/Victor/X3) with an excitation wavelength of 380 nm and an emission wavelength of 460 nm, the amount of AMC released from Ac-DEVD-AMC was quantified. When compared with controls, apoptotic cell lysates containing active caspase-3 produced a significant emission. […] For all doses, duplicate wells were used. This experiment was performed according to Yurttaş et al.[52]

The test system of data set [4] is A549 cells. The data set can be described thus: Mitochondrial membrane depolarization (JC-1, flow cytometry). It is filed as cell-based, human. The note with it: A549, IC50 concentration, 24 h. The protocol: Staining of cells with JC-1 was realized according to the manufacturer’s recommendations of BD, Pharmingen Flow cytometry kit. […] For this purpose, cells were seeded at an optimal density in six-well plates (not exceeding 1 × 10^6/mL cells). The cells were then incubated with the substances to be tested at the appropriate concentration and time. After the treatment, each cell suspension was taken into a 15 mL polystyrene centrifuge tube and the cells were centrifuged at 400g for 5 min and removed from the supernatant. 0.5 mL of a freshly prepared working solution was added to each pellet, and the solution was vortexed. The test cells were soaked in a JC-1 working solution at 37 °C for 10–15 min, and the cells were washed twice. In the first wash, 2 mL of 1X assay buffer was added and the cells were suspended sensitively. Then, the cells were centrifuged at 400g for 5 min and the supernatant was removed, carefully. In the second wash, 1 mL of 1X assay buffer was added and vortexed. After the cells were centrifuged at 400g for 5 min, each cell pellet was suspended in 0.5 mL 1X assay buffer and vortexed. Finally, the cell was analyzed by a flow cytometer.

Data set [5] deals with A549 cells. The data set can be described thus: Cell cycle analysis by flow cytometry. It is filed as cell-based, human. The note with it: A549, 24 h incubation. The protocol:
Following a 24 h incubation period with the compounds, a cell cycle analysis measurement methodology was implemented in compliance with the manufacturer’s instructions for A549 cells (BD, Biosciences). Next, the cells were immersed in citrate buffer for a short while. At room temperature, the cells were centrifuged for 5 min at 400 g. After the supernatant was decanted, 250 μL of solution A was added to the pellet, and it was allowed to sit at room temperature for 10 min. Solution B (200 μL) was then added, carefully mixed, and incubated at room temperature for 10 min. Solution C (200 μL) was then added. It was gently mixed, allowed to stand at 4 °C for 10 min in the dark, and then examined using BD Bioscience’s MODFID software on a flow cytometer. This method was applied in our previous study.[54]

Where [6] appears, read: Mus musculus, L929, L929 healthy cell line.

For orientation: IC50 means the concentration that gives 50% inhibition. A lower IC50 goes with higher potency. As usually defined, the inhibition is the share of the control response that was lost under treatment. Low values mean a response near the control, high ones a response far below the control. For orientation: melting point means the temperature of the solid-liquid transition.

Structures are written as SMILES.

T1 sequence (P14780 107-444 limits assumed): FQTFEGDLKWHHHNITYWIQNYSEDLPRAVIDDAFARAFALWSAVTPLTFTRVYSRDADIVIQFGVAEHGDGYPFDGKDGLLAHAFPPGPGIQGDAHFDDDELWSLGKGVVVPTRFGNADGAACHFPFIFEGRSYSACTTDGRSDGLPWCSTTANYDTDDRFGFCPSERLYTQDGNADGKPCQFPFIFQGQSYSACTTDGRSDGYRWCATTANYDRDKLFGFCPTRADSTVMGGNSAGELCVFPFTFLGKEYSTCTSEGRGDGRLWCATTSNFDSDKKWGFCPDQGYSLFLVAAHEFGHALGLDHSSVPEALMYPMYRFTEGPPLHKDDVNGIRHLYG

Consider `CC(=O)Nc1ccccc1OCc1nnc(SCC(=O)Nc2nc3ccc(C)cc3s2)o1` [Compound 4e, 2-[(5-((2-Acetamidophenoxy)methyl)-1,3,4-oxadiazol-2-yl)thio]-N-(6-methylbenzothiazol-2-yl)acetamide], for which the melting point was 213 to 216 °C. For the same compound, in data set [1], the IC50 came out at 43 ± 2.79 µM and the “SI (L929/A549)” value turned out to be 0.69. Moreover, the IC50 in the data set with C6 rat glioma cell line came out at 458 ± 28.2 µM. Further, the IC50 in data set [2] (setting [6]) is 29.9 ± 3.01 µM. On MMP-9 enzyme, this compound came in with an IC50 of 19.5 ± 3.18 µM and an inhibition at 100 µg/mL above 50%.

`CC(=O)Nc1ccccc1OCc1nnc(SCC(=O)Nc2nc3ccccc3s2)o1` [Compound 4a, 2-[(5-((2-Acetamidophenoxy)methyl)-1,3,4-oxadiazol-2-yl)thio]-N-(benzothiazol-2-yl)acetamide]: the melting point was 189 to 194 °C. In addition, in data set [1], the IC50 amounted to 22.3 ± 1.67 µM and the “SI (L929/A549)” value is reported as 26.250. In addition, the midpoint of inhibition in the data set with C6 rat glioma cell line, the IC50, lay at 18.5 ± 5.58 µM. For the same compound, in [2] (setting [6]), it took 586 ± 22.9 µM to reach half-maximal inhibition (IC50). The compound further registered an inhibition at 100 µg/mL against MMP-9 enzyme of 41.4 ± 1.85%.

`CC(=O)Nc1ccccc1OCc1nnc(SCC(=O)Nc2ccc([N+](=O)[O-])cc2)o1` [Compound 4j, 2-[(5-((2-Acetamidophenoxy)methyl)-1,3,4-oxadiazol-2-yl)thio]-N-(4-nitrophenyl)acetamide] had a melting point of 210 to 215 °C. Besides, in data set [1], the “inhibition of A549 at the lowest concentration tested” value is on record as “greater than 50%”, the concentration for half-maximal inhibition (IC50) is below 8.8 µM and the “SI (L929/A549)” value is below 1. For the same compound, the half-inhibitory concentration (IC50) in the data set on C6 rat glioma cell line is above 1000 µM. Further, in [2] (L929 healthy cell line), the IC50 was below 8.8 µM. In data set [2] (setting [6]), this compound displayed an IC50 below 7.96 µM. For the same compound, on MMP-9 enzyme, the concentration for half-maximal inhibition (IC50) came out at 22 ± 1.41 µM and the inhibition at 100 µg/mL is above 50%.

Turning to `CCOc1ccc2nc(NC(=O)CSc3nnc(COc4ccccc4NC(C)=O)o3)sc2c1` [Compound 4g, 2-[(5-((2-Acetamidophenoxy)methyl)-1,3,4-oxadiazol-2-yl)thio]-N-(6-ethoxybenzothiazol-2-yl)acetamide], the melting point lay within 208 to 212 °C. Besides, in [1], the “inhibition of A549 at the lowest concentration tested” value is “greater than 50%”, the IC50 is below 7.82 µM and the “SI (L929/A549)” value was below 1. In the data set on C6 rat glioma cell line, inhibition was half-maximal at 8.16 ± 0.24 µM (IC50). Also, the IC50 in [2] (L929 healthy cell line) is below 7.82 µM. This compound also displayed an IC50 in data set [2] (setting [6]) below 7.96 µM. Moreover, at MMP-9 enzyme, the IC50 amounted to 7.1 ± 1.27 µM and the inhibition at 100 µg/mL was above 75%.

For the compound `CC(=O)Nc1ccccc1OCc1nnc(SCC(=O)Nc2ccc(Cl)cc2)o1` [Compound 4k, 2-[(5-((2-Acetamidophenoxy)methyl)-1,3,4-oxadiazol-2-yl)thio]-N-(4-chlorophenyl)acetamide], the half-maximal inhibitory concentration (IC50) in data set [1] was found to be 7.48 ± 0.58 µM. Also, the IC50 with C6 rat glioma cell line is above 1000 µM. In addition, the IC50 in [2] (setting [6]) was found to be 38.2 ± 4.91 µM. In the data set on A549 cells [3], the “Q1: necrotic cells” value turned out to be 33.19%; the “Q2 + Q4: early and late apoptotic cells” value was determined as 17.98%; the “Q2: late apoptotic cells” value is 10.35%; the “Q3: viable cells” value was 48.83%. The “Q4: early apoptotic cells” value in the data set with A549 cells [3] is given as 7.63%. In addition, in the data set with caspase-3, the “% (+): caspase-3 activity positive cells” value is given as 1.8% and the “% (−): caspase-3 activity negative cells” value turned out to be 98.5%. Further, in the data set on A549 cells [4], the “mitochondrial membrane depolarization %” value turned out to be 6.29% and the “mitochondrial membrane polarization %” value was 93.04%. Besides, in the data set with A549 cells [5], the “% S” value came out at 18.11%, the G0/G1% is 63.31% and the G2/M % was 18.58%. The same compound returned an inhibition at 100 µg/mL against MMP-9 enzyme of 48.4 ± 3.56%.

The record behind these values is publication PMC10753699, “Synthesis of Some New 1,3,4-Oxadiazole Derivatives and Evaluation of Their Anticancer Activity” (ACS Omega, 2023).
